From PMC11571207, “Stereorandomized Oncocins with Preserved Ribosome Binding and Antibacterial Activity” (Journal of Medicinal Chemistry, 2024)
Converted amounts (≈) assume the structure as drawn. Non-standard residues stand in square brackets, D forms with d. Residues, ends and D or L forms follow the SMILES beside them. No end group written: not given here.

Experiments:
E. coli BW25113 WT = details: Table S1, 16-20 h at 37 °C; for MIC E. coli BW25113 WT, 12.5% MH: 12.5% Müller-Hinton medium pH 7.4; for MIC E. coli BW25113 WT, Full MH: full Müller-Hinton medium pH 7.4
Procedure: (§1) Minimum inhibitory concentration assay
(§2) Antimicrobial activity was assayed against P. aeruginosa PAO1, K. pneumoniae NCTC418, E. coli W3110, A. baumannii ATCC 19606, methicillin-resistant S. aureus COL (MRSA), and for selected peptides on P. aeruginosa PA14 and the polymyxin-B-resistant derivative PA14 2P4, as well as the clinical isolates ZEM-1A and ZEM9A, K. pneumoniae OXA-48, S. aureus Newman, Enterobacter cloacae and Burkholderia cenocepacia. The minimal inhibitory concentration (MIC) was determined by using broth microdilution method. A colo ny of bacteria was picked and grown in Luria-Bertani (LB) medium overnight at 37°C. For E. coli BW25113 sbmA::kan the medium was supplemented with 25 mg/L of kanamycin. The next day, the culture was then regrown in LB medium to log phase (OD600 = 0.6 to 0.8), which lasted approximately 4 h, and diluted to an OD600 of 0.022 in the desired medium. Stock solutions of 1 mg/mL of the samples were prepared in sterilized milliQ water and diluted to the beginning concentration of 64 μg/mL in 300 μL Mueller Hinton (MH)-medium. The diluted samples were added to first well of 96-well microtiter plate (TPP, untreated, Faust Laborbedarf, AG, Schaffhausen) and diluted serially by ½. Finally, 4 μL of the bacterial suspension was inoculated into the sample solutions (150 μL/well) with a final inoculation of about 5∙10^5 CFU/mL. The plates were then incubated at 37°C for 15-18h. For each assay, sterility (broth only) and growth control (broth with bacterial inoculum, without antibiotics) were checked with two columns in the plate. The next day, 15 μL of 3-(4,5-dimethylthiazol-2-yl)-2,5-diphenyltetrazolium bromide (MTT) was added to each well of the plate, such a way that MIC was defined as the lowest concentration of the peptide that inhibited visible growth of the tested […]
(§3) Table S1. Activity of stereorandomized and diastereomeric oncocins against E. coli BW25113 WT and BW25113 sbmA::kan mutant in full and 12.5% MH, at pH 7.4. […]
(§4) a) Minimum inhibitory concentration (MIC, μg/mL) was determined on E. coli BW25113 WT and […]

[1] = system: E. coli BW25113 sbmA::kan; details: Table S1, sbmA::kan mutant, 16-20 h at 37 °C; for MIC E. coli BW25113 SbmA-, 12.5% MH: 12.5% Müller-Hinton medium pH 7.4; for MIC E. coli BW25113 SbmA-, Full MH: full Müller-Hinton medium pH 7.4
Procedure: as §1, §2, §3, §4

[2] = system: E. coli ribosome, U2506 of the 23S rRNA; experiment: Ribosome footprinting (CMCT modification of U2506); format: binding; details: 1 μM peptide, 10.5 μM CMCT, purified E. coli ribosomes (5 pmol), 25 °C; primer extension, sequencing gel
Procedure: A 5 mL culture of E. coli MG1655 (WT-cells) was grown in LB overnight (220 rpm, 37 °C). One liter LB medium was inoculated, and bacteria were grown to OD = 0.6 (220 rpm. 37 °C); cells were centrifuged in centrifuge bottles, and the pellet was resuspended in ice-cold water and transferred in 50 mL falcon tubes. Falcon tubes were centrifuged, the supernatant was removed, the pellet was resuspended in 15 mL polysome buffer (TRIS/HCl pH 7.5 20 mM, NH4Cl 100 mM, MgCl2 10 mM, EDTA 0.5 mM, β-mercaptoethanol 60 mM), frozen dropwise in N2 (l), and stored at −80 °C. The cells were ground in CryoMil with the standard program (1 min precooling, 2 min grinding 5/s, 2 min cooling, 2 min grinding 5/s). The powder was transferred in 50 mL falcon tubes containing N2 (l) and stored at −80 °C. The lysates were thawed with a water bath (30 °C), put on ice, transferred to precooled Eppendorf tubes, and centrifuged (5000 g, 2 min, 4 °C). The clear lysate was transferred to new precooled tubes, centrifuged (14 000 g, 10 min, 4 °C), and the supernatant was transferred to new precooled tubes. 300 mL of clear lysate was loaded on a 10–50% sucrose gradient in CMCT buffer (K-borate buffer pH 8 80 mM, MgCl2 25 mM, NH4Cl 100 mM) and ultracentrifuged (3 h, 234 050 g, 4 °C). The fractions containing monosomes and polysomes were collected and ultracentrifuged overnight (16 h, 260 800 g, 4 °C). The supernatant was discarded, and the pellet was washed with ice-cold CMCT buffer. The ribosomes were resuspended in 100 μL CMCT buffer with a mini magnetic stirring bar and stored on ice. The concentration of ribosomes was measured in 1/200 dilution in water.
Ribosomes (5 pmol) were mixed with 8 μL of CMCT buffer, the compound of interest 1 μM, and water to a final volume of 20 μL in a precooled tube and incubated at 25 °C for 10 min. 20 μL of CMCT (10.5 μM) in water was added and incubated at 25 °C for 30 min. The reaction was stopped with 160 μL of EDTA (30 μM), and the samples were stored on ice.
160 μL portion of RNA resuspension buffer and 40 μL of 10% SDS were added, and the samples were vigorously resuspended. 400 μL of prewarmed acid phenol was added, and the samples were incubated on a thermomixer (5 min, 1200 rpm, 65 °C). The samples were put on ice for 5 min and centrifuged (5 min, 14 000 g, RT). The watery phase was transferred to a new precooled tube, 400 μL of phenol–chloroform–isoamyl alcohol (4 °C) was added, and the samples were mixed (5 min, 1200 rpm, RT). The samples were centrifuged again (5 min, 14 000g, RT), and the watery phase was transferred to another precooled tube. 34 μL of 3 M NaOAc pH 5.5, 0.8 μL of Glycoblue and 400 μL of isopropanol were added, and the samples were incubated for 3 h at −80 °C. The samples were then centrifuged (40 min, 21 000g, 4 °C), and the pellet was washed with ice-cold 70% EtOH. The residual liquid was removed, and the samples were dried (5 min, 37 °C). The samples were resuspended in 20 μL of water, the concentration was measured, and the samples were −80 °C.
Primers designed to probe the positions 2506 of the 23S rRNA (5-[sequence]-3′) were labeled with radioactive phosphate (γ^32 P-ATP). […] To prepare primers for one reaction, 1 μL of primer (0.3 μM), 0.4 μL of 5× PNK-buffer, 0.25 μL of water, 0.2 μL of γ^32 P-ATP, and 0.15 μL of T4 PNK were mixed and incubated at 37 °C.

E. coli W3110 = experiment: Time-killing kinetic assay, E. coli; format: cell-based, Escherichia coli; details: 8× MIC, full MHB pH 7.4, 0-6 h, n = 6
Procedure: (§5) Time-Killing Kinetic Assay
(§6) Single colonies of E. coli W3110 and K. pneumoniae NCTC418 were picked and grown overnight with shaking (180 rpm) in LB (Sigma-Aldrich, Buchs, Switzerland) medium 5 mL overnight at 37 °C. The overnight bacterial cultures were diluted to OD600 = 0.002 (2 × 10^6 CFU/mL) in fresh MHB medium. Stock solutions of AMPs in sterilized milliQ water were prepared in 1 mg/mL and were diluted to two times more than required concentration in fresh MHB (Sigma- Aldrich, Buchs, Switzerland) medium at pH 7.4. 100 μL of prepared bacteria solution in MHB and 100 μL of samples in MHB were mixed in a 96-well microtiter plate (TPP, untreated, Corning Incorporated, Kennebunk, USA). Untreated bacteria at 1 × 10^6 CFU/mL were used as a growth control. 96-well microtiter plates were incubated in 37 °C with shaking (180 rpm). Surviving bacteria were quantified at 0, 0.5, 1, 2, 4 and 6 h by plating 10 -fold dilutions of the sample in sterilized normal saline on LB agar plates. LB agar plates were incubated at 37 °C for 10 h, and the number of individual colonies was counted at each time point. The assay was performed in triplicate in a biosafety level 2 lab. […]

K. pneumoniae NCTC418 = experiment: Time-killing kinetic assay, K. pneumoniae; format: cell-based, Klebsiella pneumoniae; details: 8× MIC, full MHB pH 7.4, 0-6 h, n = 6
Procedure: as §5, §6

[3] = 25% (v/v) human serum in 0.1 M TRIS buffer pH 7.4, peptide 200 μM, 37 °C, 0/24/48/72 h, LC-MS UV trace vs 4-hydroxybenzoic acid internal standard, n = 3
Procedure: Human serum was diluted in 0.1 M filtered TRIS buffer pH 7.4 (50%, 1:1, v/v). Selected peptides were diluted in 0.1 M filtered TRIS buffer pH 7.4 to a concentration of 400 μM and 0.1 mg/mL 4- hydroxybenzoic acid was added as internal standard. Aliquots of peptide solution (300 μL) were added to aliquots of serum (300 μL) in sterile 1.5 mL Eppendorf tubes, to reach a peptide concentration of 200 μM and 25% (v/v) human serum during the assay. Samples, in triplicate, were incubated at 37 °C under gentle stirri ng (200 rpm). At different time points (0, 24, 48 and 72 hours), 100 μL of each sample was collected and quenched by precipitating serum proteins through the addition of (0.1 M) ZnSO4·7 H2O / ACN (1:1) (0.1 M, 100 μL) and cooling in ice bath for 10 minutes. Protein precipitates were pelleted under centrifugation (5 min at 14’000 rpm) and the supernatants were analysed by LC-MS. Peaks corresponding to the internal standard and the undegraded peptides were integrated from the area under the curves (AUC) of UV traces, with the ratio peptide/standard at t = 0 h as 100%.
Figure S7. Serum stability assay of the respective compound (200 μM), incubated with human serum (25% in TRIS buffer, 0.1 M, pH 7.4) at 37 °C. Aliquots were taken at different time (0 / 24 / 48 and 72 h). Undegraded peptide values determined by RP -HPLC analysis usi ng hydroxybenzoic acid as internal standard. Measured in triplicates and the data represent mean ± SD, n […]
(1 picture or pasted object on this page, not shown here)

Molecule | MIC E. coli BW25113 WT, 12.5% MH (E. coli BW25113 WT) [µg/mL] | MIC E. coli BW25113 WT, Full MH (E. coli BW25113 WT) [µg/mL] | MIC E. coli BW25113 SbmA-, 12.5% MH [1] [µg/mL] | MIC E. coli BW25113 SbmA-, Full MH [1] [µg/mL] | Protection of U2506 of 23S rRNA from CMCT modification (band at C2507) [2] | Killing profile against E. coli (E. coli W3110) | Killing profile against K. pneumoniae (K. pneumoniae NCTC418) | Serum stability (undegraded peptide) [3]
CC[C@H](C)[C@H](NC(=O)[C@H](CCCNC(=N)N)NC(=O)[C@H](CCCNC(=N)N)NC(=O)[C@@H]1CCCN1C(=O)[C@@H]1CCCN1C(=O)[C@H](CCCNC(=N)N)NC(=O)[C@@H]1CCCN1C(=O)[C@H](CCCNC(=N)N)NC(=O)[C@@H]1CCCN1C(=O)[C@@H](CC(C)C)NC(=O)[C@H](Cc1ccc(O)cc1)NC(=O)[C@@H]1CCCN1C(=O)[C@@H]1CCCN1C(=O)[C@H](CCCCN)NC(=O)[C@H](CC(=O)O)NC(=O)[C@@H](N)C(C)C)C(=O)N[C@@H](Cc1ccc(O)cc1)C(=O)N[C@@H](CC(N)=O)C(=O)N[C@@H](CCCNC(=N)N)C(N)=O [DL7-Onc] (H-VDKPPY[dL]PRPRPPRRIYNR-NH2) | 32 (≈ 13.4 µM) | > 64 | 32 (≈ 13.4 µM) | > 64 |  |  |  | 
VDKPPYLPRPRPPRRIYNR [sr8Cterm-Onc] (VDKPPYLPRPRPPRRIYNR-NH2; also: residues 12-19 stereorandomized (1:1 L/D mixture)) [oncocin with 8 C-terminal residues stereorandomized] |  |  |  |  | protected from CMCT modification | comparable kinetics to L-Onc | comparable kinetics to L-Onc | 
CC[C@@H](C)[C@@H](NC(=O)[C@@H](CCCNC(=N)N)NC(=O)[C@@H](CCCNC(=N)N)NC(=O)[C@H]1CCCN1C(=O)[C@H]1CCCN1C(=O)[C@@H](CCCNC(=N)N)NC(=O)[C@H]1CCCN1C(=O)[C@@H](CCCNC(=N)N)NC(=O)[C@H]1CCCN1C(=O)[C@@H](CC(C)C)NC(=O)[C@@H](Cc1ccc(O)cc1)NC(=O)[C@H]1CCCN1C(=O)[C@H]1CCCN1C(=O)[C@@H](CCCCN)NC(=O)[C@@H](CC(=O)O)NC(=O)[C@H](N)C(C)C)C(=O)N[C@H](Cc1ccc(O)cc1)C(=O)N[C@H](CC(N)=O)C(=O)N[C@H](CCCNC(=N)N)C(N)=O [D-Onc] (H-[dV][dD][dK][dP][dP][dY][dL][dP][dR][dP][dR][dP][dP][dR][dR][dI][dY][dN][dR]-NH2) | 16 (≈ 6.69 µM) | > 64 | 16 (≈ 6.69 µM) | > 64 |  |  |  | 
CC[C@H](C)[C@H](NC(=O)[C@@H](CCCNC(=N)N)NC(=O)[C@H](CCCNC(=N)N)NC(=O)[C@@H]1CCCN1C(=O)[C@@H]1CCCN1C(=O)[C@H](CCCNC(=N)N)NC(=O)[C@@H]1CCCN1C(=O)[C@H](CCCNC(=N)N)NC(=O)[C@@H]1CCCN1C(=O)[C@H](CC(C)C)NC(=O)[C@H](Cc1ccc(O)cc1)NC(=O)[C@@H]1CCCN1C(=O)[C@@H]1CCCN1C(=O)[C@H](CCCCN)NC(=O)[C@H](CC(=O)O)NC(=O)[C@@H](N)C(C)C)C(=O)N[C@@H](Cc1ccc(O)cc1)C(=O)N[C@@H](CC(N)=O)C(=O)N[C@H](CCCNC(=N)N)C(N)=O [Onc112, reference compound] (H-VDKPPYLPRPRPPR[dR]IYN[dR]-NH2) | 4 (≈ 1.67 µM) | 16 (≈ 6.69 µM) | 4 (≈ 1.67 µM) | > 64 |  |  |  | essentially stable to degradation over 24 h
CC[C@H]1OC(=O)[C@H](C)[C@@H](O[C@H]2C[C@@](C)(OC)[C@@H](O)[C@H](C)O2)[C@H](C)[C@@H](O[C@@H]2O[C@H](C)C[C@H](N(C)C)[C@H]2O)[C@](C)(O)C[C@@H](C)CN(C)[C@H](C)[C@@H](O)[C@]1(C)O [AZM, azithromycin, reference compound] |  |  |  |  |  | acted bacteriostatically | acted bacteriostatically | 
VDKPPYLPRPRPPRRIYNR [sr-Onc] (VDKPPYLPRPRPPRRIYNR-NH2; also: all 19 residues stereorandomized (1:1 L/D mixture)) [fully stereorandomized oncocin] | 8 | > 64 | 8 to 16 | > 64 | did not protect U2506 from CMCT modification |  |  | 
polymyxin B [PMB, reference compound] | 1 to 2 | 2 | 1 | 1 |  |  |  | 
VDKPPYLPRPRPPRRIYNR-NH2 [L-Onc, reference compound] | 4 | 16 to 32 | 8 |  |  |  |  | rapidly degraded
VDKPPYLPRPRPPRRIYNR [sr14Nterm-Onc] (VDKPPYLPRPRPPRRIYNR-NH2; also: residues 1-14 stereorandomized (1:1 L/D mixture)) [oncocin with the essential 14-residue N-terminus stereorandomized] | 16 | > 64 | 16 | > 64 | did not protect U2506 from CMCT modification |  |  | 
VDKPPYLPRPRPPRRIYNR [sr9Cterm-Onc] (VDKPPYLPRPRPPRRIYNR-NH2; also: residues 11-19 stereorandomized (1:1 L/D mixture)) [oncocin containing nine stereorandomized C-terminal residues] | 4 | 32 | 8 | > 64 | protected from CMCT modification | comparable kinetics to L-Onc | comparable kinetics to L-Onc | 
VDKPPYLPRPRPPRRIYNR [sr5Cterm-Onc] (VDKPPYLPRPRPPRRIYNR-NH2; also: residues 15-19 stereorandomized (1:1 L/D mixture)) [oncocin with the five C-terminal residues stereorandomized] |  |  |  |  | protected from CMCT modification | comparable kinetics to L-Onc | comparable kinetics to L-Onc | 
